Test results from patent publication US11078251B2, “T cell receptors (TCR) and uses thereof for the diagnosis and treatment of diabetes” (INSERM (INSTITUT NATIONAL DE LA SANTÉ ET DE LA RECHERCHE …, priority 2015, dated 2021).
No end group written: not given here.

Legend:
[1] = tested on: lytic activity of D222D clone 2 against peptide-pulsed LCL target cells; assay: Cytotoxic mechanism: ZnT8-specific lysis of LCL targets by D222D clone 2 in the presence of inhibitors; type: cell-based, human; conditions: 4 h co-culture; concanamycin A 100 nM, brefeldin A 5 μg/ml, anti-FasL mAb 5 μg/ml
Experimental: FIG. 6. […]; left to right). Live FarRed^+ target cells were counted at the end of the culture and normalized to a fixed amount of beads added to each well. Percent lysis is noted for each dot plot, calculated as 100×(live targets cultured alone)−(live targets in the presence of T cells)/(live targets cultured alone). B. Lysis of LCL targets pulsed with the indicated peptides and cultured with D222D clones at different E/T ratios. Percent lysis was calculated as above and depicted as mean±SEM of two independent experiments with clone 2 and 3, with data depicted in panel (A) used for clone 3. Similar profiles were obtained for clone 1 (not shown). C. ZnT8-specific lysis of peptide-pulsed LCL target cells co-cultured for 4 h with D222D clone 2 without inhibitors (−) or in the presence of concanamycin A (CMA, 100 nM), brefeldin A (BFA, 5 μg/ml), anti-FasL mAb (aFasL, clone NOK-1; 5 μg/ml) or IgG1 isotype control. *p<0.05 by Wilcoxon signed-rank test. Results are mean±SEM of triplicate measurements from one representative experiment out two performed.
LCL pulsed with 10 μM of the indicated peptide, K562-A2/ZnT8 or K562/A2 target cells were labeled with CellTrace FarRed (Life Technologies) and dispensed in 96-well flat-bottom plates at 10^5/well. Different numbers of CFSE-labeled T cells were added and co-cultured for 6-24 h, as indicated. […]

[2] = target: recombinant HLA-A2 molecules (Homo sapiens, UniProt P04439, D140Y/D185E/D98H/E176V/E277Q/G131W/G231S/I119V/I121R/I166T/I218V/N151K/N90K/P208A/P217A/Q86G/Q94H/R138H/R169H); assay: Affinity and stability measurements of recombinant HLA-A2 molecules complexed with peptide; type: binding; conditions: recombinant HLA-A2 complexed with peptide; data not shown
[3] = target: recombinant HLA-A2 molecules (Homo sapiens, UniProt P04439, /I119V/I121R/I166T/I218V/N151K/N90K/P208A/P217A/Q86G/Q94H/R138H/R169H); assay: as above; type: binding

Compound	inhibition of lytic activity [1]	also measured
C[C@H]1CCC/C=C/[C@@H]2C[C@H](O)C[C@H]2[C@H](O)/C=C/C(=O)O1 [brefeldin A]	not	–
AVAANIVLTV [ZnT8185-194]	–	Kd [2]: 207 nM
C/C=C/[C@H]1O[C@@](O)([C@@H](C)[C@H](O)[C@H](C)[C@H]2OC(=O)/C(OC)=C/C(C)=C/[C@@H](C)[C@@H](O)[C@@H](CC)[C@@H](O)[C@H](C)C/C(C)=C/C=C/[C@@H]2OC)C[C@@H](O[C@H]2C[C@@H](O)[C@H](OC(N)=O)[C@@H](C)O2)[C@@H]1C [concanamycin A]	completely inhibited	–
VAANIVLTV [ZnT8186-194]	–	Kd [3]: 15 nM
